Measurements as given in ChEMBL document CHEMBL4483862, “Open-source discovery of chemical leads for next-generation chemoprotective antimalarials” (2018).

Tested on: Plasmodium berghei
Assay: Luciferase/luciferin-expressing antifolate-resistant parasites were used to infect a culture of HepG2 cells that were pre-incubated with compounds. Infected hepatocytes emit light due to the luciferase reaction. Assay results are presented as the percent inhibition of light emission compared to control. […]
Assay type: functional
Settings: sporozoite; for IC90: read-out: LUCIFERASE INFECTION ASSAY - IC90

Compound | IC90 [µM] | other results
Cc1c(C(=O)Nc2nonc2-c2ccc(F)cc2)oc2ccc(F)cc12 | 8.3 | IC50 (HEPG2TOX_HILL_SLOPE 16.1, HEPG2TOX_R_SQUARED 0.611, PBLUC_HILL_SLOPE 12, PBLUC_R_SQUARED 0.0677, read-out: LUCIFERASE INFECTION ASSAY - IC50): 6.91 µM
Cc1ccc(NC(=O)c2snnc2C)cc1Cl | > 12.3 | IC50 (HEPG2TOX_HILL_SLOPE 16.5, HEPG2TOX_R_SQUARED 0.725, read-out: LUCIFERASE INFECTION ASSAY - IC50): > 12.3 µM
NC(Cc1ccccc1)c1csc(Nc2nncc3ccccc23)n1 (centres undefined) | 3.88 | IC50 (HEPG2TOX_HILL_SLOPE 16.4, HEPG2TOX_R_SQUARED 0.287, PBLUC_HILL_SLOPE 15.9, PBLUC_R_SQUARED 0.415, read-out: LUCIFERASE INFECTION ASSAY - IC50): 3.38 µM
COc1cccc(NC(=O)N2CCc3nc(NCc4cccc(Oc5ccccc5)c4)ncc3C2)c1 | 3.67 | IC50 (HEPG2TOX_HILL_SLOPE 15.7, HEPG2TOX_R_SQUARED 0.806, PBLUC_HILL_SLOPE 104, PBLUC_R_SQUARED 0.398, read-out: LUCIFERASE INFECTION ASSAY - IC50): 3.59 µM
O=C1C=CC(=O)N1Cc1ccccc1 | > 17.6 | IC50 (HEPG2TOX_HILL_SLOPE 16.7, HEPG2TOX_R_SQUARED 0.468, read-out: LUCIFERASE INFECTION ASSAY - IC50): > 17.6 µM
NC(=S)N/N=C/c1ccc(Cl)cc1 | > 15.4 | IC50 (HEPG2TOX_HILL_SLOPE 16.1, HEPG2TOX_R_SQUARED 0.56, PBLUC_HILL_SLOPE 1.65, PBLUC_R_SQUARED 0.115, read-out: LUCIFERASE INFECTION ASSAY - IC50): > 15.4 µM
O=c1c(Cl)c(Cl)cnn1-c1ccc(Cl)cc1Cl | 3.5 | IC50 (HEPG2TOX_HILL_SLOPE 16.8, 1.83, HEPG2TOX_R_SQUARED 0.839, 0.915, PBLUC_HILL_SLOPE 1.48, 10.9, PBLUC_R_SQUARED 0.768, 0.409, read-out: LUCIFERASE INFECTION ASSAY - IC50): 3.64 µM
Cc1ccc(C(=O)Nc2nc(-c3ccccn3)cs2)cc1S(=O)(=O)N1CCCCC1 | 8.14 | IC50 (HEPG2TOX_HILL_SLOPE 16.5, HEPG2TOX_R_SQUARED 0.73, PBLUC_HILL_SLOPE 17.5, PBLUC_R_SQUARED 0.446, read-out: LUCIFERASE INFECTION ASSAY - IC50): 7.18 µM
O=C(c1cccc(-c2cccnc2)c1)c1cnc(Nc2ccccc2)[nH]1 | 9.25 | IC50 (HEPG2TOX_HILL_SLOPE 16.4, HEPG2TOX_R_SQUARED 0.215, PBLUC_HILL_SLOPE 5.04, PBLUC_R_SQUARED 0.615, read-out: LUCIFERASE INFECTION ASSAY - IC50): 5.98 µM
CCCCC#CC1(O)c2ccccc2C(=O)N1c1ccccc1 (centres undefined) | 9.4 | IC50 (HEPG2TOX_HILL_SLOPE 16.6, HEPG2TOX_R_SQUARED 0.582, PBLUC_HILL_SLOPE 7.49, PBLUC_R_SQUARED 0.197, read-out: LUCIFERASE INFECTION ASSAY - IC50): 7.01 µM
Cn1cc(C(=O)Nc2ccc(Sc3ccc(Br)cc3)cc2)cn1 | 6.49 | IC50 (HEPG2TOX_HILL_SLOPE 16.3, HEPG2TOX_R_SQUARED 0.811, PBLUC_HILL_SLOPE 1.99, PBLUC_R_SQUARED 0.873, read-out: LUCIFERASE INFECTION ASSAY - IC50): 2.15 µM
COc1cccc(C2=NN(C(=O)c3ccco3)C(c3ccccc3O)C2)c1 (centres undefined) | 8.57 | IC50 (HEPG2TOX_HILL_SLOPE 15.7, HEPG2TOX_R_SQUARED 0.922, PBLUC_HILL_SLOPE 21, PBLUC_R_SQUARED 0.659, read-out: LUCIFERASE INFECTION ASSAY - IC50): 7.72 µM
c1ccc(-c2csc3ncnc(NC4CCCCC4)c23)cc1 | 4.21 | IC50 (HEPG2TOX_HILL_SLOPE 16.2, HEPG2TOX_R_SQUARED 0.468, PBLUC_HILL_SLOPE 9.94, 2.76, PBLUC_R_SQUARED 0.433, 0.667, read-out: LUCIFERASE INFECTION ASSAY - IC50): 4.13 µM
O=c1[nH]c2ccc(-c3csc(Nc4ccc(Cl)cc4)n3)cc2o1 | > 10 | IC50 (HEPG2TOX_HILL_SLOPE 16.7, HEPG2TOX_R_SQUARED 0.933, PBLUC_HILL_SLOPE 4.05, PBLUC_R_SQUARED 0.109, read-out: LUCIFERASE INFECTION ASSAY - IC50): 7.81 µM
CC(=O)c1ccc(-c2ccc(C(=O)Nc3cnc4c(cnn4C(C)C)c3)o2)cc1 | 8.52 | IC50 (HEPG2TOX_HILL_SLOPE 16.5, HEPG2TOX_R_SQUARED 0.628, PBLUC_HILL_SLOPE 4.19, PBLUC_R_SQUARED 0.524, read-out: LUCIFERASE INFECTION ASSAY - IC50): 5.04 µM
CCOc1ccc(C(C)NC(=O)c2nc(SC)ncc2Cl)cc1 (centres undefined) | 4.29 | IC50 (HEPG2TOX_HILL_SLOPE 16.5, HEPG2TOX_R_SQUARED 0.52, PBLUC_HILL_SLOPE 11.3, PBLUC_R_SQUARED 0.138, read-out: LUCIFERASE INFECTION ASSAY - IC50): 3.53 µM

Compound | IC90 [µM] | other results
Cn1c(CSCc2nc(-c3ccc(Cl)cc3)cs2)nnc1SCC(=O)Nc1ccc(Cl)cc1 | > 6.15 | IC50 (HEPG2TOX_HILL_SLOPE 16.7, HEPG2TOX_R_SQUARED 0.854, PBLUC_HILL_SLOPE 1.35, PBLUC_R_SQUARED 0.574, read-out: LUCIFERASE INFECTION ASSAY - IC50): > 6.15 µM
O=C(Nc1cccc(C(F)(F)F)c1)n1ncc(Sc2ccc(Cl)cc2)c1-c1ccc(Cl)cc1 | 4.72 | IC50 (HEPG2TOX_HILL_SLOPE 15.8, HEPG2TOX_R_SQUARED 0.635, PBLUC_HILL_SLOPE 5.24, PBLUC_R_SQUARED 0.621, read-out: LUCIFERASE INFECTION ASSAY - IC50): 3.11 µM
CCN(CC)c1ccc(/C=N/NC(=S)NCC2CCCO2)c(O)c1 (centres undefined) | > 10 | IC50 (HEPG2TOX_HILL_SLOPE 16.0, 27.0, HEPG2TOX_R_SQUARED 0.190, 0.836, PBLUC_HILL_SLOPE 15.6, PBLUC_R_SQUARED 0.223, read-out: LUCIFERASE INFECTION ASSAY - IC50): 8.89 µM
COc1cc2c(cc1NC(=O)Cn1cnc(C#N)n1)oc1ccccc12 | > 10 | IC50 (HEPG2TOX_HILL_SLOPE 16.6, HEPG2TOX_R_SQUARED 0.479, read-out: LUCIFERASE INFECTION ASSAY - IC50): > 10 µM
Fc1ccc(C(Nc2ncnc3ccsc23)c2cccs2)cc1 (centres undefined) | 6.3 | IC50 (HEPG2TOX_HILL_SLOPE 16.1, HEPG2TOX_R_SQUARED 0.824, PBLUC_HILL_SLOPE 385, PBLUC_R_SQUARED 0.0246, read-out: LUCIFERASE INFECTION ASSAY - IC50): 6.26 µM
Cn1ccnc1SCc1n[nH]c(=O)c2ccccc12 | 8.93 | IC50 (HEPG2TOX_HILL_SLOPE 15.9, HEPG2TOX_R_SQUARED 0.771, PBLUC_HILL_SLOPE 3.2, PBLUC_R_SQUARED 0.661, read-out: LUCIFERASE INFECTION ASSAY - IC50): 4.5 µM
CN(C)S(=O)(=O)c1cccc(C(=O)Nc2nc3ccc(Oc4ccccc4)cc3s2)c1 | > 10 | IC50 (HEPG2TOX_HILL_SLOPE 15.9, HEPG2TOX_R_SQUARED 0.649, PBLUC_HILL_SLOPE 3.03, PBLUC_R_SQUARED 0.302, read-out: LUCIFERASE INFECTION ASSAY - IC50): 5.87 µM
c1ccc(Cn2c(-c3cccnc3)cc3cnc(Nc4ccc(N5CCOCC5)cc4)cc32)cc1 | 8.6 | IC50 (HEPG2TOX_HILL_SLOPE 16.1, HEPG2TOX_R_SQUARED 0.869, PBLUC_HILL_SLOPE 3.82, PBLUC_R_SQUARED 0.619, read-out: LUCIFERASE INFECTION ASSAY - IC50): 4.83 µM
c1ccc(-c2nnc3ccc(-c4cccs4)cn23)cc1 | > 10 | IC50 (HEPG2TOX_HILL_SLOPE 16.6, HEPG2TOX_R_SQUARED 0.17, read-out: LUCIFERASE INFECTION ASSAY - IC50): > 10 µM
O=C(Cn1nnc(-c2ccccc2)n1)N/N=C/c1c(O)ccc2ccccc12 | > 10 | IC50 (HEPG2TOX_HILL_SLOPE 16.4, HEPG2TOX_R_SQUARED 0.547, PBLUC_HILL_SLOPE 10.9, PBLUC_R_SQUARED 0.367, read-out: LUCIFERASE INFECTION ASSAY - IC50): 8.32 µM
N#Cc1cc(Br)c(OCc2c(F)cccc2Cl)c(Br)c1 | 6.23 | IC50 (HEPG2TOX_HILL_SLOPE 16.7, HEPG2TOX_R_SQUARED 0.384, PBLUC_HILL_SLOPE 6.36, PBLUC_R_SQUARED 0.0513, read-out: LUCIFERASE INFECTION ASSAY - IC50): 4.41 µM
CCOC(=O)c1cc(C#N)c(Sc2nnc(SC)s2)nc1C(F)(F)F | > 8.12 | IC50 (HEPG2TOX_HILL_SLOPE 16.4, HEPG2TOX_R_SQUARED 0.12, PBLUC_HILL_SLOPE 2.78, PBLUC_R_SQUARED 0.452, read-out: LUCIFERASE INFECTION ASSAY - IC50): 4.34 µM
CN(C)c1ccc(-c2cc3c(cn2)nc(Nc2ccccc2)n3C)cc1 | 4.23 | IC50 (HEPG2TOX_HILL_SLOPE 15.7, HEPG2TOX_R_SQUARED 0.892, PBLUC_HILL_SLOPE 14.7, PBLUC_R_SQUARED 0.425, read-out: LUCIFERASE INFECTION ASSAY - IC50): 3.64 µM
CS(=O)(=O)N1CCCc2cc(-c3csc(Nc4ccccn4)n3)ccc21 | 2.51 | IC50 (HEPG2TOX_HILL_SLOPE 15.9, HEPG2TOX_R_SQUARED 0.84, PBLUC_HILL_SLOPE 1.6, PBLUC_R_SQUARED 0.55, read-out: LUCIFERASE INFECTION ASSAY - IC50): 0.637 µM
CS(=O)(=O)NCCc1ccc(C(=O)Nc2ccc(Cl)c(C(F)(F)F)c2)s1 | > 10 | IC50 (HEPG2TOX_HILL_SLOPE 16.3, HEPG2TOX_R_SQUARED 0.947, PBLUC_HILL_SLOPE 9.17, PBLUC_R_SQUARED 0.224, read-out: LUCIFERASE INFECTION ASSAY - IC50): 8.32 µM
O=c1c(Cl)c(Cl)cnn1-c1ccccc1 | > 13.7 | IC50 (HEPG2TOX_HILL_SLOPE 16.5, HEPG2TOX_R_SQUARED 0.386, read-out: LUCIFERASE INFECTION ASSAY - IC50): > 13.7 µM
